# Experiments:
# Assay type in all cases: physicochemical
# [1] = F3P PCDS direct diffusion (SPME GC/MS); conditions: 40 mL, 6 capillaries
# Procedure: For this study, three diffusers each containing 40 mL of product and 6 capillaries were prepared and diffused. Every Monday, Wednesday and Friday, pheromone diffusion in the air was monitored by GC/MS and SPME (Solid Phase Micro Extraction) until no liquid remained.
# Experimentally, the device studied was placed in a closed space (in our case an upturned aquarium) containing the SPME fiber. The set-up si the same as the set-up shown in Section D/above and in FIG. 24. The SPME fiber was left for 2 hours to give the molecules time to absorb onto the fiber, then the fiber was injected into the GC/MS instrument for analysis. Pheromone diffusion over time was then studied.
# Same elements as in Section E/V. C. are reproduced in this section.
# [2] = Indirect assay of rod diffuser solution (GC/FID); conditions: stick diffuser solution, despecified pheromone
# Procedure: Solution integrity was checked at each analysis time. Before each indirect assay, the vial was weighed to visualize mass loss over time. Each vial contained six sticks. • Specifications: the solution must lose mass over time. • Result: Compliant—See FIG. 9 This is the same analytical method as for the diffuser block study, only the sample preparation differs. 1.25 g of solution were weighed into a 25 mL volumetric flask and the volume made up to the mark with acetone. The resulting solution is transferred to a 1.5 mL GC vial for analysis. This is exactly the same calibration range as for the diffuser block study.
# [3] = Indirect assay of diffuser blocks (GC/FID, pheromone remaining in the block); conditions: despecified pheromone
# Procedure: Analyses were carried out using the gas chromatography (GC) technique with a flame ionization detector (FID), commonly known as GC/FID. The instrument used was the Shimadzu GC2025.® • Injection: Quantity injected: 1 μL, split 50:1, temperature: 230° C. • Separation: DB-WAX column (Agilent), length: 20 m, diameter: 180 μm, film thickness: […] • Carrier gas: Helium (He) • Analysis time: 11.50 min (not including time to return to equilibrium between each analysis) injection). • Detection: FID, temperature: 250° C., flow rates: H2: 40 mL/min, Air: 400 mL/min, Nitrogen (make-up): 30 mL/min. To obtain a representative sample, “cores” were drilled at various positions in the block and then collected. 2.5 g of gel were weighed into a 50 mL volumetric flask and the volume made up to the beginning of the neck of the flask with acetone. The flask was then placed in an ultrasonic bath for one hour until the block was dissolved (a white precipitate was obtained), then acetone was added to the mark. An aliquot of this solution was placed in a syringe fitted with a syringe filter and filtered to obtain a translucent solution. The resulting solution was transferred to a 1.5 mL GC vial for analysis. The assays were carried out using a calibration range.
# [4] = Pheromone migrated to the stick tips (GC/FID); conditions: on stick tips, despecified pheromone
# Procedure: In the course of this study, we also measured the amount of pheromone migrating on the sticks, to check that the pheromone had migrated to the top of the sticks, helping it to diffuse into the air. To do this, the test is the same as for the diffuser blocks: 2.5 g of stick tips are cut off and placed in a 50 mL flask, which is then placed in an ultrasonic bath for one hour. The resulting solution is filtered (to avoid injecting particles into the instrument) and placed in a chromatographic vial for analysis.
# [5] = F3 migration along the stick (top 1 cm, GC/MS); conditions: F3, five sticks
# Procedure: Three devices containing 40 mL of F3 feline facial pheromone product and five […] sticks were prepared and left on diffusion. A t=1 day, T=3 days, T=10 days, T=15 days and T=22 days after preparation of the devices, one stick was taken on each device and 1 cm of the top of each stick was cut, then extracted with acetone 1 h in an ultrasonic bath and analysed by gas chromatography coupled with mass spectrometry (GC/MS). The same analytical parameters were used for the study C with a liquid injection (injected quantity: […]) Blank analysis and matrix blank analysis were also performed.
# [6] = F3 block stability study in sodium stearate aqueous gel (GC-MS); conditions: after 3 months
# Procedure: Aqueous sodium stearate gel is a method used by SIGNS for several of the pheromones it markets (pork, poultry, rabbit). The sodium stearate matrix is cast at high temperature (60° C.) and contains 2% pheromone. In this study, matrix samples are taken by coring, and the active ingredients are extracted by apolar solvent, using the SIGNS-validated quality control method. Extracts are analyzed by GC-MS. […] Given this observation, formula F3 cannot be used in blocks for passive diffusion, so a change of galenic formulation is necessary.
# [7] = Ratios of molecules diffused through the sticks over time
# Procedure: Furthermore, as small molecules diffuse more, it happens that they lose intensity over the course of the study, so the ratios are different 24 hours after immersing the sticks in the liquid and 21 days later. Here are the ratios for each pheromone studied at the start of the study and at the end.
# [8] = DAP, 24 h after immersion of sticks
# [9] = DAP, 21 days after immersion of sticks (empty tank)
# [10] = Despecified pheromone (Core), 5 days after immersion of the sticks
# [11] = Despecified pheromone (Core), 21 days after immersion of sticks (empty tank)
# [12] = F3, 24 h after immersion of sticks
# [13] = F3, 21 days after immersion of sticks (empty tank)
# [14] = F3P, 24 h after immersion of the sticks
# [15] = F3P, 21 days after immersion of sticks (empty tank)
SMILES,direct diffusion over time [1],% of the active ingredient in the pheromone ([2]; day 0) [%],% of the active ingredient in the pheromone ([2]; day 7) [%],% of the active ingredient in the pheromone ([2]; day 14) [%],% of the active ingredient in the pheromone ([2]; day 21) [%],% of the active ingredient in the pheromone ([3]; day 0) [%],% of the active ingredient in the pheromone ([3]; day 7) [%],% of the active ingredient in the pheromone ([3]; day 14) [%],% of the active ingredient in the pheromone ([3]; day 21) [%],% of the active ingredient in the pheromone ([3]; day 28) [%],% of the active ingredient in the pheromone ([4]; day 7) [%],% of the active ingredient in the pheromone ([4]; day 14) [%],% of the active ingredient in the pheromone ([4]; day 21) [%],quantity on the top of the stick over time [5],stability in the block [6],"ratio of molecules diffused through the sticks [7, 8]","ratio of molecules diffused through the sticks [7, 9]","ratio of molecules diffused through the sticks [7, 10]","ratio of molecules diffused through the sticks [7, 11]","ratio of molecules diffused through the sticks [7, 12]",further results
"CCCCCCCCCCCCCCCC(=O)OC [methyl palmitate, methyl hexadecanoate]",increased over time,27.3,27.3,27.2,26.2,27.2,27.2,27.1,27.1,27.1,29.8,30.2,32.5,more pronounced increase of their quantities over time,remained stable,9.5 % (w/w),12 % (w/w),19 % (w/w),22 % (w/w),3 % (w/w),"ratio of molecules diffused through the sticks [7, 13]: 5 % (w/w); ratio of molecules diffused through the sticks [7, 14]: 1 % (w/w); ratio of molecules diffused through the sticks [7, 15]: 3.4 % (w/w)"
"CCCCCCCC/C=C\CCCCCCCC(=O)OC [methyl oleate, methyl (Z)-octadec-9-enoate]",increased over time,30.8,30.8,30.7,30.8,30.4,30.6,30.6,30.7,30.7,31.3,31.5,32.6,more pronounced increase of their quantities over time,remained stable,2 % (w/w),3.5 % (w/w),3 % (w/w),4 % (w/w),2 % (w/w),"relative quantity on the top of the stick [5]: major compound found on the top of the stick; ratio of molecules diffused through the sticks [7, 13]: 4 % (w/w); ratio of molecules diffused through the sticks [7, 14]: 0.6 % (w/w); ratio of molecules diffused through the sticks [7, 15]: 2 % (w/w)"
